Assay results reported in US20260285853A1, “COMPOUNDS AND METHODS FOR MODULATING SPLICING” (REMIX THERAPEUTICS INC., priority 2023, published 2026).

Tests used:
Type in all cases: cell-based
HTT mRNA [1] = test: Splicing RT-qPCR assay (THP), Table 2A; details: Table 2A, THP; for AC50: HTT alternative junction (AJ) mRNA, read-out: HTT AJ (AC50, increase in alternative junction mRNA); for IC50: HTT canonical junction (CJ) mRNA, read-out: HTT CJ (IC50, decrease in canonical junction mRNA)
MYB mRNA [2] = test: Splicing RT-qPCR assay (THP), Table 2A; details: Table 2A, THP; for AC50: MYB alternative junction (AJ) mRNA, read-out: MYB AJ (AC50, increase in alternative junction mRNA); for IC50: MYB canonical junction (CJ) mRNA, read-out: MYB CJ (IC50, decrease in canonical junction mRNA)
HTT mRNA [3] = test: Gene panel canonical junction qPCR assay, decrease in CJ mRNA, Table 3; details: decrease in CJ mRNA levels, canonical junction qPCR, gene panel
Procedure, shortened: (§1)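 A673 cells were plated, left to adhere for 24 h, then dosed; K562 cells were plated in 96- or 384-well format and dosed directly. Both were incubated 24 h at 37 °C with an 11-point 3-fold series (top 10 uM final). Canonical junction mRNA was then read by cDNA synthesis and qPCR.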

MYB mRNA [4] = test: as above; details: decrease in CJ mRNA levels, canonical junction qPCR, gene panel
Procedure, shortened: as §1

[5] = tested on: SH-SY5Y (human neuroblastoma) cells; test: Cell viability, Cell Titer Glo 2.0 assay; details: read-out: Viability SHSY5Y.3 GI50
Procedure, shortened: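 SH-SY5Y neuroblastoma cells are exposed to test compounds for 72 hours at 37 °C and 5% CO2, with final DMSO held at 0.1%. Cell viability is then measured with the CellTiter-Glo 2.0 assay.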

SMILES	AC50 (HTT mRNA [1])	IC50 (HTT mRNA [1])	AC50 (MYB mRNA [2])	IC50 (MYB mRNA [2])	IC50 (HTT mRNA [3])	IC50 (MYB mRNA [4])	GI50 [5]
Cc1cn2c(N3CCC(NC4CC4)CC3)ccc(C(=O)Nc3cc(CNS(C)(=O)=O)c4nn(C)cc4c3)c2n1 [Compound 839]	1000 to 10000 nM	1000 to 10000 nM	100 to 1000 nM	100 to 1000 nM	1000 to 10000 nM	100 to 1000 nM	1000 to 10000 nM
Cn1cc2cc(NC(=O)c3ccc(N4CCC(NC5CC5)CC4)c4cn(C)nc34)cc(CCNS(C)(=O)=O)c2n1 [Compound 840]	> 10000 nM	1000 to 10000 nM	1000 to 10000 nM	1000 to 10000 nM	1000 to 10000 nM	1000 to 10000 nM	> 10000 nM
CN(C)c1ccc(C(=O)Nc2cc(CNS(C)(=O)=O)c3nn(C)cc3c2)c2nn(C)cc12 [Compound 841]	> 10000 nM	> 10000 nM	> 10000 nM	> 10000 nM	> 10000 nM	> 10000 nM	> 10000 nM
Cc1cn2nc(NC(=O)c3ccc(N4CCC(NC5CC5)CC4)c4cn(C)nc34)cc(CNS(C)(=O)=O)c2n1 [Compound 842]	> 10000 nM	> 10000 nM	> 10000 nM	> 10000 nM	> 10000 nM	> 10000 nM	1000 to 10000 nM
COc1nc2c(C(=O)Nc3cc(CNS(C)(=O)=O)c4nn(C)cc4c3)ccc(N3CCC(NC4CC4)CC3)c2s1 [Compound 843]	> 10000 nM	> 10000 nM	> 10000 nM	> 10000 nM	> 10000 nM	> 10000 nM	> 10000 nM
Cn1cc2cc(NC(=O)c3ccc(N4CCCCC4)c4cn(C)nc34)cc(CNS(C)(=O)=O)c2n1 [Compound 844]	> 10000 nM	> 10000 nM	> 10000 nM	> 10000 nM	> 10000 nM	> 10000 nM	1000 to 10000 nM
Cc1cn2cc(NC(=O)c3ccc(N4CCCCC4)c4cn(C)nc34)nc2c(CNS(C)(=O)=O)n1 [Compound 845]	> 10000 nM	> 10000 nM	> 10000 nM	> 10000 nM	> 10000 nM	> 10000 nM	1000 to 10000 nM
Cc1cn2cc(NC(=O)c3ccc(N4CCC(NC5CC5)CC4)c4cn(C)nc34)nc2c(CO)n1 [Compound 846, 4-[4-(cyclopropylamino)-1-piperidyl]-N-[8-(hydroxymethyl)-6-methyl-imidazo[1,2-a]pyrazin-2-yl]-2-methyl-indazole-7-carboxamide]	100 to 1000 nM	100 to 1000 nM	100 to 1000 nM	100 to 1000 nM	100 to 1000 nM	100 to 1000 nM	100 to 1000 nM
COc1cc2c(N3CCC(NC4CC4)CC3)ccc(C(=O)Nc3cc(CO)c4nn(C)cc4c3)n2n1 [Compound 847]	100 to 1000 nM	100 to 1000 nM	< 100 nM	< 100 nM	100 to 1000 nM	< 100 nM	100 to 1000 nM
CNC1CCN(c2ccc(C(=O)Nc3cn4cc(C)nc(CNS(C)(=O)=O)c4n3)c3nn(C)cc23)C1 (stereo not shown) [Compound 848, N-[8-(methanesulfonamidomethyl)-6-methyl-imidazo[1,2-a]pyrazin-2-yl]-2-methyl-4-[3-(methylamino)pyrrolidin-1-yl]indazole-7-carboxamide]	100 to 1000 nM	100 to 1000 nM	100 to 1000 nM	100 to 1000 nM	100 to 1000 nM	100 to 1000 nM	100 to 1000 nM
CNC1CN(c2ccc(C(=O)Nc3cn4cc(C)nc(CNS(C)(=O)=O)c4n3)c3nn(C)cc23)C1 [Compound 849]	100 to 1000 nM	100 to 1000 nM	100 to 1000 nM	100 to 1000 nM	100 to 1000 nM	100 to 1000 nM	100 to 1000 nM
CCNC1CCN(c2ccc(C(=O)Nc3cn4ccnc(CNS(C)(=O)=O)c4n3)c3nn(C)cc23)CC1 [Compound 850]	> 10000 nM	> 10000 nM	> 10000 nM	> 10000 nM	> 10000 nM	> 10000 nM	> 10000 nM
Cc1cn2cc(NC(=O)c3ccc(N4CCC(N(C)C)CC4)c4cn(C)nc34)nc2c(CNS(C)(=O)=O)n1 [Compound 851]	> 10000 nM	> 10000 nM	> 10000 nM	> 10000 nM	> 10000 nM	> 10000 nM	> 10000 nM
Cn1cc2cc(NC(=O)c3c(O)cc(N4CCC(NC5CC5)CC4)c4cn(C)nc34)cc(CNS(C)(=O)=O)c2n1 [Compound 852]	1000 to 10000 nM	> 10000 nM	100 to 1000 nM	100 to 1000 nM	> 10000 nM	100 to 1000 nM	1000 to 10000 nM
COc1cc(N2CCC(NC3CC3)CC2)c2cn(C)nc2c1C(=O)Nc1cc(CNS(C)(=O)=O)c2nn(C)cc2c1 [Compound 853]	> 10000 nM	> 10000 nM	> 10000 nM	> 10000 nM	> 10000 nM	> 10000 nM	> 10000 nM
C=CCNC1CCN(c2cc(O)c(C(=O)Nc3cc(CNS(C)(=O)=O)c4nn(C)cc4c3)c3nn(C)cc23)CC1 [Compound 854]	1000 to 10000 nM	> 10000 nM	100 to 1000 nM	100 to 1000 nM	> 10000 nM	100 to 1000 nM	1000 to 10000 nM
COc1nc2c(C(=O)Nc3cc(CNS(C)(=O)=O)c4nc(C)cn4c3)ccc(N3CCC(NC4CC4)CC3)c2s1 [Compound 855]	1000 to 10000 nM	1000 to 10000 nM	1000 to 10000 nM	1000 to 10000 nM	1000 to 10000 nM	1000 to 10000 nM	1000 to 10000 nM
CCNC1CCN(c2ccc(C(=O)Nc3cn4cc(C)nc(CC(=O)N(C)C)c4n3)c3nn(C)cc23)CC1 [Compound 856]	1000 to 10000 nM	1000 to 10000 nM	1000 to 10000 nM	1000 to 10000 nM	1000 to 10000 nM	1000 to 10000 nM	1000 to 10000 nM
CCNC1CCN(c2ccc(C(=O)Nc3cn4cc(C)nc(CC(N)=O)c4n3)c3nn(C)cc23)CC1 [Compound 857]	> 10000 nM	> 10000 nM	> 10000 nM	> 10000 nM	> 10000 nM	> 10000 nM	> 10000 nM
Cc1cc2c(N3CCC(NC4CC4)CC3)ccc(C(=O)Nc3cc(CO)c4nn(C)cc4c3)n2n1 [Compound 858]	1000 to 10000 nM	1000 to 10000 nM	100 to 1000 nM	100 to 1000 nM	1000 to 10000 nM	100 to 1000 nM	100 to 1000 nM
Cc1cn2c(N3CCC(NC4CC4)CC3)ccc(C(=O)Nc3cc(CO)c4nn(C)cc4c3)c2n1 [Compound 859]	1000 to 10000 nM	1000 to 10000 nM	100 to 1000 nM	100 to 1000 nM	1000 to 10000 nM	100 to 1000 nM	1000 to 10000 nM
Cc1cn2cc(NC(=O)c3ccc(N4CCC(NC5CC5)CC4)c4cn(C)nc34)nc2c(CNc2nccs2)n1 [Compound 860]	> 10000 nM	> 10000 nM	> 10000 nM	> 10000 nM	> 10000 nM	> 10000 nM	1000 to 10000 nM
